This is an account of results in DBAASP.

Some test systems named below: Staphylococcus aureus; Pseudomonas aeruginosa; Enterobacter cloacae; Escherichia coli; Bacillus subtilis.
Holding throughout (test): ≥ marks a high value that may be exact or a test limit, other limits are often not marked, values filed in µg/mL are converted to µM
Experiment [1] deals with Candida albicans NCPF 1467.
The subject of experiment [2] is Staphylococcus aureus NCTC 10788.
The test system of experiment [3] is Bacillus pumilus CVCC 709.
In experiment [4] the test system is Escherichia coli CVCC 1570.
Experiment [5] deals with Bacillus subtilis CVCC 717.
The test system of experiment [6] is Staphylococcus aureus CVCC 1882.
For experiment [7], the system named is Micrococcus luteus CVCC 1600.
Experiment [8] concerns Escherichia coli ATCC 25922.
In experiment [9] the test system is Staphylococcus aureus ATCC 25923.
The subject of experiment [10] is Candida albicans ATCC 20032.
The test system of experiment [11] is Bacillus subtilis ATCC 6633.
The subject of experiment [12] is Stenotrophomonas maltophilia B32/4.
Experiment [13] relates to Acinetobacter baumannii NM35.
For experiment [14], the system named is Escherichia coli ATCC 25726.
Experiment [15] relates to Acinetobacter baumannii NM8.
In experiment [16] the test system is Stenotrophomonas maltophilia B32/1.
Experiment [17] relates to Staphylococcus aureus 127/08.
The subject of experiment [18] is Pseudomonas aeruginosa ATCC 27853.
The test system of experiment [19] is Candida albicans ATCC 90028.
The test system of experiment [20] is Salmonella enterica subsp. enterica serovar Typhi.

SMILES strings stand for the structures. Values after ≈ are worked out from the molar mass of the structure shown.

A word on the MIC: it is the least concentration at which growth counts as inhibited. High values mean a less susceptible organism, low ones a more susceptible organism. As to `CC[C@H](C)[C@H](NC(=O)[C@H](C)NC(=O)CNC(=O)[C@H](CC(C)C)NC(=O)[C@@H](N)Cc1ccccc1)C(=O)N[C@@H](C)C(=O)N[C@@H](C)C(=O)N[C@@H](C)C(=O)N[C@@H](CC(C)C)C(=O)N1CCC[C@H]1C(=O)N[C@@H](Cc1cnc[nH]1)C(=O)N[C@H](C(=O)N[C@H](C(=O)N[C@@H](CC(N)=O)C(=O)N[C@@H](C)C(=O)N[C@H](C(=O)N[C@H](C(=O)N[C@@H](CC(N)=O)C(=O)N[C@@H](C)C(=O)N[C@@H](CC(C)C)C(=O)O)[C@@H](C)O)C(C)C)[C@@H](C)CC)C(C)C` [FLGAIAAALPHVINAVTNAL], the MIC in [1] was no less than 120 µM; in [2], 16 µM (≈ 31.6 µg/mL).

Turning to `CC[C@H](C)[C@H](NC(=O)[C@H](CO)NC(=O)[C@H](CCCCN)NC(=O)[C@H](CCCN=C(N)N)NC(=O)[C@H](C)NC(=O)[C@H](C)NC(=O)CN)C(=O)N[C@@H](CCCN=C(N)N)C(=O)N[C@@H](CC(C)C)C(=O)N[C@@H](Cc1cnc[nH]1)C(=O)N[C@@H](CCCN=C(N)N)C(=O)N[C@@H](CC(C)C)C(=O)N[C@@H](Cc1ccc(O)cc1)C(=O)N[C@H](C(=O)N[C@@H](Cc1c[nH]c2ccccc12)C(=O)N[C@@H](CCCCN)C(=O)N[C@@H](C)C(=O)N[C@H](C(=O)N[C@H](C(=O)N[C@@H](Cc1ccc(O)cc1)C(=O)N[C@H](C(=O)N[C@@H](CCCN=C(N)N)C(=O)O)[C@@H](C)O)[C@@H](C)CC)[C@@H](C)O)[C@@H](C)O` [GAARKSIRLHRLYTWKATIYTR], the MIC was 9 µM (≈ 24 µg/mL) in [3]; 16.7 µM (≈ 44.5 µg/mL) in experiment [4]; 13.3 µM (≈ 35.4 µg/mL) in experiment [5]; 23.3 µM (≈ 62 µg/mL) in experiment [6]; 8 µM (≈ 21.3 µg/mL) in experiment [7].

For `CC[C@H](C)[C@H](NC(=O)CN)C(=O)NCC(=O)NCC(=O)N[C@@H](C)C(=O)N[C@@H](CC(C)C)C(=O)N[C@@H](CC(C)C)C(=O)N[C@@H](CO)C(=O)N[C@H](C(=O)NCC(=O)N[C@@H](CCCCN)C(=O)N[C@@H](CO)C(=O)N[C@@H](C)C(=O)N[C@@H](CC(C)C)C(=O)N[C@@H](CCCCN)C(=O)NCC(=O)N[C@@H](CC(C)C)C(=O)N[C@H](C(=O)N[C@@H](CCCCN)C(=O)NCC(=O)N[C@@H](CC(C)C)C(=O)N[C@@H](C)C(=O)N[C@@H](CCC(=O)O)C(=O)N[C@@H](Cc1cnc[nH]1)C(=O)N[C@@H](Cc1ccccc1)C(N)=O)[C@@H](C)O)C(C)C` [GIGGALLSVGKSALKGLTKGLAEHF], the MIC in experiment [8] was greater than 41.2 µM; in experiment [9] it was 30.9 µM (≈ 75 µg/mL); in experiment [10], no less than 41.2 µM; in experiment [11] it was no less than 41.2 µM.

As to `CC[C@H](C)[C@@H]1NC(=O)[C@H](CCCCN)NC(=O)[C@@H](NC(=O)[C@H](C)NC(=O)[C@@H](NC(=O)[C@H](CC(C)C)NC(=O)[C@H](CC(=O)O)NC(=O)[C@@H](NC(=O)CNC(=O)[C@H](CC(C)C)NC(=O)[C@H](CCCCN)NC(=O)[C@H](C)NC(=O)[C@H](CC(C)C)NC(=O)[C@H](CC(=O)O)NC(=O)[C@H](CCCCN)NC(=O)CNC(=O)[C@H](CC(C)C)NC(=O)CN)C(C)C)C(C)C)CSSC[C@@H](C(=O)O)NC(=O)[C@H](CCC(N)=O)NC(=O)[C@H](CCCCN)NC(=O)[C@H](CO)NC1=O` [GLGKDLAKLGVDLVACKISKQC], the minimal inhibitory concentration (MIC) in experiment [12] is no less than 200 µM; in [13], no less than 200 µM; in [14], no less than 200 µM; in experiment [15] it was no less than 200 µM; in experiment [16] it was no less than 200 µM; in experiment [9] it was greater than 200 µM. Also, the minimal inhibitory concentration (MIC) in experiment [17] was no less than 200 µM.

For `CC[C@H](C)[C@H](N)C(=O)N[C@@H](CC(C)C)C(=O)NCC(=O)N[C@@H](CC(C)C)C(=O)N[C@H](C(=O)N[C@H](C(=O)N[C@@H](CO)C(=O)N[C@H](C(=O)N[C@H](C(=O)NCC(=O)N[C@@H](CC(N)=O)C(=O)N[C@H](C(=O)N[C@@H](CC(C)C)C(=O)NCC(=O)NCC(=O)N[C@@H](CC(C)C)C(=O)N[C@@H](CC(C)C)C(=O)N[C@@H](CCCCN)C(=O)N[C@@H](CC(N)=O)C(=O)N[C@@H](CC(C)C)C(N)=O)C(C)C)[C@@H](C)CC)[C@@H](C)O)[C@@H](C)CC)C(C)C` [ILGLVISTIGNVLGGLLKNL], the minimal inhibitory concentration (MIC) in experiment [8] was greater than 49.8 µM; in experiment [9], greater than 49.8 µM; in experiment [10] it was no less than 49.8 µM; in experiment [11], no less than 49.8 µM.

As for `CC(C)C[C@H](NC(=O)[C@H](CCCCN)NC(=O)[C@H](CCCN=C(N)N)NC(=O)[C@H](Cc1ccccc1)NC(=O)[C@H](Cc1ccccc1)NC(=O)[C@H](CCCCN)NC(=O)[C@H](CCCCN)NC(=O)[C@H](Cc1ccccc1)NC(=O)[C@H](CCCN=C(N)N)NC(=O)[C@H](CCCCN)NC(=O)[C@@H](NC(=O)[C@@H](N)CC(C)C)C(C)C)C(=O)N[C@@H](CCCCN)C(=O)N[C@@H](CCCCN)C(=O)N[C@@H](CO)C(=O)N[C@H](C(=O)N[C@@H](CCCCN)C(=O)N[C@@H](CCCCN)C(N)=O)C(C)C` [LVKRFKKFFRKLKKSVKK], the minimal inhibitory concentration (MIC) was 6.93 µM (≈ 16 µg/mL) in [8]; 27.7 µM (≈ 64 µg/mL) in experiment [18]; 1.73 µM (≈ 4 µg/mL) in [9]; 55.4 µM (≈ 128 µg/mL) with Staphylococcus aureus; 3.46 µM (≈ 8 µg/mL) in the experiment on Pseudomonas aeruginosa; no less than 55.4 µM with Enterobacter cloacae. Moreover, the MIC in experiment [19] is 27.7 µM (≈ 64 µg/mL); against Escherichia coli, 55.4 µM (≈ 128 µg/mL); in the experiment with Bacillus subtilis it was 27.7 µM (≈ 64 µg/mL); in experiment [20] it was 0.866 µM (≈ 2 µg/mL).

On to `CC(C)C[C@H](NC(=O)[C@H](CCCCN)NC(=O)[C@H](CCCN=C(N)N)NC(=O)[C@H](Cc1ccccc1)NC(=O)[C@H](Cc1ccccc1)NC(=O)[C@H](CCCCN)NC(=O)[C@H](CCCCN)NC(=O)[C@H](Cc1ccccc1)NC(=O)[C@H](CCCN=C(N)N)NC(=O)[C@H](CCCCN)NC(=O)[C@@H](NC(=O)[C@@H](N)CC(C)C)C(C)C)C(=O)N[C@@H](CCCCN)C(=O)N[C@@H](CCCCN)C(=O)N[C@@H](CO)C(=O)N[C@H](C(=O)N[C@@H](CCCCN)C(N)=O)C(C)C` [LVKRFKKFFRKLKKSVK], for which the MIC in experiment [8] was 117 µM (≈ 256 µg/mL); in experiment [18] it was 29.3 µM (≈ 64 µg/mL); in experiment [9] it was 117 µM (≈ 256 µg/mL); against Staphylococcus aureus it was 58.7 µM (≈ 128 µg/mL); in the experiment on Pseudomonas aeruginosa, 1.83 µM (≈ 4 µg/mL); with Enterobacter cloacae it was 14.7 µM (≈ 32 µg/mL). Moreover, the MIC in experiment [19] was found to be 14.7 µM (≈ 32 µg/mL); with Escherichia coli, 14.7 µM (≈ 32 µg/mL); in the experiment on Bacillus subtilis, 14.7 µM (≈ 32 µg/mL); in [20], 0.917 µM (≈ 2 µg/mL).

Regarding `CC(C)[C@H](NC(=O)[C@@H]1CCCN1C(=O)[C@@H]1CCCN1C(=O)[C@@H](NC(=O)[C@@H](N)Cc1ccc(O)cc1)C(C)C)C(=O)N[C@@H](CCC(N)=O)C(=O)N[C@@H](CCCCN)C(=O)N1CCC[C@H]1C(=O)N[C@@H](Cc1cnc[nH]1)C(=O)N1CCC[C@H]1C(=O)N[C@@H](CC(N)=O)C(=O)NCC(=O)N1CCC[C@H]1C(=O)N[C@@H](CCCCN)C(=O)N[C@@H](Cc1ccccc1)C(=O)N1CCC[C@H]1C(=O)N[C@H](C(=O)N[C@@H](Cc1ccccc1)C(=O)N1CCC[C@H]1C(=O)O)[C@@H](C)O` [YVPPVQKPHPNGPKFPTFP], the minimal inhibitory concentration (MIC) in experiment [3] is 13.3 µM (≈ 28.6 µg/mL); in experiment [4], 23.3 µM (≈ 50 µg/mL); in experiment [5], 16.7 µM (≈ 35.9 µg/mL); in experiment [6], no less than 133 µM; in [7] it was 13.3 µM (≈ 28.6 µg/mL).
